According to patent publication US12642859B2, “Macropinocytosis selective monobody-drug conjugates” (priority 2020, dated 2026):
Square brackets hold non-standard residues; d marks the D form. Peptide text beside a SMILES is read from it. * marks the point of attachment. Dolaproine = CO[C@@H]([C@@H]1CCCN1)[C@@H](C)C(=O)O; Dil = CC[C@H](C)[C@H](NC)[C@@H](CC(=O)O)OC; X1 = C[C@@H](N*)[C@@H](O)c1ccccc1; NMeV = CN[C@H](C(=O)O)C(C)C

Experiments:
[1] = Ex vivo organ toxicity analysis (H&E, apoptotic markers, tubulin staining) of MIA PaCa tumor bearing mice; format: in vivo
Protocol: FIGS. 5A-5B show the enhanced toxicity of FN-MMAE (monobody) in oncogenic KRas cell lines in vivo. In FIG. 5A, established (100-150 mm^3) subcutaneous MiaPaCa and BxPC3 tumors were treated with, PBS (negative control), 0.2 mg/kg of MMAE alone, or 0.2 mg/kg of FN-MMAE non-binding protein conjugate on Days 0, 7, and 14 (yellow arrows). Tumor growth as assessed by volume was slower in FN-MMAE treated animals compared to MMAE treated alone. n=4 per treatment group. Error bars represent SEM of tumor volume.
FIGS. 6A-6B show ex vivo analysis and mode of action of MMAE.
To test the effects in vivo, a MIA PaCa-2 subcutaneous tumor model was used to compare the efficacy of PBS, MMAE, and FN-MMAE (FIG. 5A). After tumors were established, three injections of 0.2 mg/kg drug with respect to MMAE concentration was administered every 7 days. […] This highlights the specificity of reduced uptake by non-macropinocytic cells in relation to free drug, which contributes to the selective effect of the non-binding FN domain-drug conjugate.

[2] = test system: HeLa KRas^V12 cells; test: Macropinocytic uptake of fluorescently labeled non-binding FN domain, co-localization with TMR-dextran (doxycycline-inducible system); format: cell-based, human
From the text: (§1) FIG. 2A and FIG. 2B show the uptake of the fluorescently-tagged monobody and MP marker in human PDAC MIA PaCa and HeLa or HeLa KRas^V12 cells. Co-localization of the fluorescently-tagged monobody (green) and MP marker (dextran, red) in. DAPI, blue. Boxed region is enlarged, inset.
(§2) To determine if non-binding FN domains could be internalized, a well-established doxycycline-inducible mutant KRas^V12 HeLa cell system (hereafter, HeLa KRas^V12) was used in which macropinocytosis is monitored by high-molecular-weight (70 kDa) tetramethyl-rhodamine labeled (TMR−) dextran.

[3] = test system: KPC 1203 cells; test: Macropinocytic uptake, co-localization with dextran; format: cell-based, mouse
[4] = test system: mutant KRas PDAC cell line MIA PaCa-2; test: as above; format: cell-based, human
From the text: as §1, §2

[5] = test system: KMS11 WT Ras, L363 Mutant NRAS, and RPMI 8226 Mutant KRas cells; test: Uptake of fluorescently-tagged monobody and MP marker in multiple myeloma cell lines; format: cell-based, human
From the text: FIGS. 14A-14C show uptake of fluorescently-tagged monobody and MP marker in human multiple myeloma cancer cell lines. FIGS. 14A and 14B are images showing co-localization of the fluorescently-tagged monobody (red) and MP marker (dextran, green) in KMS11 WT Ras, L363 Mutant NRAS, and RPMI 8226 Mutant KRas cells. DAPI, blue.
The differential uptake was established not only in cell lines of solid tumors, but also in blood cancer such as multiple myeloma. […] Using a similar system to the HeLa KRas^V12 inducible system, we created an inducible KRas^V12 cell system in wild type KRas KMS11 multiple myeloma cells.

SMILES	H&E of ex vivo organs ([1]; MIA PaCa tumor bearing mice)	tubulin staining ([1]; kidneys)	apoptotic marker expression (CC3, HMGB1, cleaved Parp1) ([1]; kidneys, compared to PBS)	effect of macropinocytosis inhibitor on FN domain and dextran uptake [2]	effect of macropinocytosis inhibitor on uptake of dextran and FN-Cy5.5 [3]	effect of macropinocytosis inhibitor on uptake of dextran and FN-Cy5.5 [4]	effect of macropinocytosis inhibitor on FN-Cy5.5 uptake [5]
CC[C@H](C)[C@@H]([C@@H](CC(=O)N1CCC[C@H]1[C@H](OC)[C@@H](C)C(=O)N[C@H](C)[C@@H](O)c1ccccc1)OC)N(C)C(=O)[C@@H](NC(=O)[C@@H](NC)C(C)C)C(C)C [MMAE, monomethyl auristatin E] (H-[NMeV]V[Dil][Dolaproine]-X1)	visual liver damage	drastically reduced	substantial increase in non-specific toxicity	–	–	–	–
CCN(c1nc(N)c(C(=O)NC(=N)N)nc1Cl)C(C)C [EIPA]	–	–	–	blocked both non-binding FN domain and dextran uptake	abolished uptake of both macromolecules	abolished uptake of both macromolecules	abolished
CC(Sc1nc2ccccc2[nH]1)C(=O)N/N=C/c1cc(Br)ccc1O (centres unmarked) [KH7]	–	–	–	–	–	–	abolished
